Laboratory results taken from US8143243B2, “Compounds for the treatment of hepatitis C” (Bristol-Myers Squibb Company, priority 2007, dated 2012).

What follows are molecules tested on HCV replicon cells (assay: HCV replicon FRET / luciferase assay). Settings: Hepatitis C virus.
Type: cell-based
Description: FRET Assay Preparation. To perform the HCV FRET screening assay, 96-well cell culture plates were used. The FRET peptide (Anaspec, Inc.) (Taliani et al., Anal. Biochem. 1996, 240, 60-67) contains a fluorescence donor, EDANS, near one end of the peptide and an acceptor, DABCYL, near the other end. The fluorescence of the peptide is quenched by […] resonance energy transfer (RET) between the donor and the acceptor, but as the NS3 protease cleaves the peptide the products are released from RET quenching and the fluorescence of the donor becomes apparent. The assay reagent was made as follows: 5× cell Luciferase cell culture lysis reagent from Promega (#E153A) diluted to 1× with dH2O, NaCl added to 150 mM final, the FRET peptide diluted to 20 μM final from a 2 mM stock.
To prepare plates, HCV replicon cells, with or without a Renilla luciferase reporter gene, were trypsinized and placed into each well of a 96-well plate with titrated test compounds added in columns 3 through 12; columns 1 and 2 contained a control compound (HCV protease inhibitor), and the bottom row contained cells without compound. The plates were then placed in a CO2 incubator at 37° C.
Assays. Subsequent to addition of the test compounds described above (FRET Assay Preparation), at various times the plate was removed and Alamar blue solution (Trek Diagnostics, #00-100) was added per well as a measure of cellular toxicity. After reading in a Cytoflour 4000 instrument (PE Biosystems), plates were rinsed with PBS and then used for FRET assay by the addition of 30 ul of the FRET peptide assay reagent described above (FRET Assay Preparation) per well. The plate was then placed into the Cytoflour 4000 instrument which had been set to 340 excite/490 emission, automatic mode for 20 cycles and the plate read in a kinetic mode. Typically, the signal to noise using an endpoint analysis after the reads was at least three-fold. Alternatively, after Alamar blue reading, plates were rinsed with PBS, 50 ul of DMEM (high glucose) without phenol red was added and plates were then used for luciferase assay using the Promega Dual-Glo Luciferase Assay System.
Compound analysis was determined by quantification of the relative HCV replicon inhibition and the relative cytotoxicity values. To calculate cytoxicity values, the average Alamar Blue fluorescence signals from the control wells were set as 100% non-toxic. The individual signals in each of the compound test wells were then divided by the average control signal and multiplied by 100% to determine […]. To calculate the HCV replicon inhibition values, an average background value was obtained from the two wells containing the highest amount of HCV protease inhibitor at the end of the assay period. These numbers were similar to those obtained from naïve Huh-7 cells.
The background numbers were then subtracted from the average signal obtained from the control wells and this number was used as 100% activity. The individual signals in each of the compound test wells were then divided by the averaged control values after background subtraction and multiplied by 100% to determine percent activity. EC50 values for a protease inhibitor titration were calculated as the concentration which caused a 50% reduction in FRET or luciferase activity. The two numbers generated for the compound plate, percent cytoxicity and percent activity were used to determine compounds of interest for further analysis.
`COc1ccc2c(c1)C=C(c1c(C(=O)N3C4CCC3CC4)cnn1C)Cn1c-2c(C2CCCCC2)c2ccc(C(=O)NS(=O)(=O)C(C)C)cc21` was tested, and the EC50 was 0.001 to 0.5 µM.
Work on `COc1ccc2c(c1)C=C(c1c(C(=O)N3C4CCCC3COC4)cnn1C(C)C)Cn1c-2c(C2CCCCC2)c2ccc(C(=O)NS(=O)(=O)C(C)C)cc21` yielded an EC50 of 0.001 to 0.5 µM.
Molecule `COc1ccc2c(c1)C=C(c1c(C(=O)N3C4CCC3CN(C)C4)nnn1C(C)C)Cn1c-2c(C2CCCCC2)c2ccc(C(=O)NS(=O)(=O)N(C)C)cc21` has an EC50 of 0.001 to 0.5 µM.
`CCn1ncc(C(=O)N2C3CCC2CN(C)C3)c1C1=Cc2cc(OC)ccc2-c2c(C3CCCCC3)c3ccc(C(=O)NS(=O)(=O)C(C)C)cc3n2C1` showed an EC50 of 0.001 to 0.5 µM.
Molecule `COc1ccc2c(c1)C=C(c1c(C(=O)N3C4COCC3COC4)cnn1CC(F)(F)F)Cn1c-2c(C2CCCCC2)c2ccc(C(=O)NS(=O)(=O)C(C)C)cc21` has an EC50 of 0.001 to 0.5 µM.
`CCn1nc(C)c(C(=O)N2C3CCC2CN(C)C3)c1C1=Cc2cc(OC)ccc2-c2c(C3CCCCC3)c3ccc(C(=O)NS(=O)(=O)C(C)C)cc3n2C1` was tested, and the EC50 was 0.001 to 0.5 µM.
`COc1ccc2c(c1)C=C(c1c(C(=O)N3C4CCC3CN(C)C4)ncn1C(C)C)Cn1c-2c(C2CCCCC2)c2ccc(C(=O)NS(=O)(=O)C(C)C)cc21` gave an EC50 of 0.001 to 0.5 µM.
With `CCn1nc(C)c(C(=O)N2C3CCCC2COC3)c1C1=Cc2cc(OC)ccc2-c2c(C3CCCCC3)c3ccc(C(=O)NS(=O)(=O)C(C)C)cc3n2C1` the EC50 was 0.001 to 0.5 µM.
With `CCn1ncc(C(=O)N2CC3CCC(C2)N3C)c1C1=Cc2cc(OC)ccc2-c2c(C3CCCCC3)c3ccc(C(=O)NS(=O)(=O)C(C)C)cc3n2C1` the EC50 was 0.001 to 0.5 µM.
Molecule `COc1ccc2c(c1)C=C(c1c(C(=O)N3C4CCC3CN(C)C4)c(C)nn1C(C)C)Cn1c-2c(C2CCCCC2)c2ccc(C(=O)NS(=O)(=O)C(C)C)cc21` has an EC50 of 0.001 to 0.5 µM.
